From US8507488B2, “Fused nitrogen containing heterocycles and compositions thereof as kinase inhibitors” (IRM LLC, priority 2008, dated 2013)

Key:
[1] = biological target: T1, Tel-TrkA (Homo sapiens, UniProt P04629); test: Inhibition of proliferation of Ba/F3 cells expressing Tel-TrkA (BaF3/Tel-TrkA, luciferase/Bright Glo readout); assay type: cell-based; details: read-out: Ba/F3 Tel-TrkA IC 50
T1 construct: dimerization domain of Tel (ETV6) transcription factor (fusion partner, human ETV6 P41212); expressed in transfected cells; host or cells: luciferase expressing Ba/F3 murine hematopoietic progenitor cells; the other entry of the earlier key: ETV6 (P41212, Transcription factor ETV6)
Protocol: (§1) Test compounds were dissolved in DMSO (10 mM) and transferred into 1.4 mL flat bottom or V-shaped Matrix tubes carrying a unique 2D matrix chip by individual compound hubs. The numbers of these chips were distinctively linked to the individual compound identification numbers. The stock solutions were stored at −20° C. if not used immediately. For the test procedure the vials were defrosted and identified by a scanner whereby a working sheet is generated that guides the subsequent working steps.
(§2) Compound dilutions were made in 384 well plates. This format enabled the assay of maximally 28 individual test compounds at 12 concentrations (single points) including 2 reference compounds. The dilution protocol included the production of pre-dilution plates, master plates and assay plates: • Compound plates: 30 μL of individual compound (10 mM) DMSO solution including standard compound were transferred into columns 1 and 13 of a 384 well plate. 20 μL of DMSO were added to the rest of the wells and the compounds were serially diluted (1:3) by transferring 10 μL from a well in column 1 or 13 to the next well in column 2 or 14 respectively and successively with the help of a Minitrack robot. • Assay plates: Identical assay plates were then prepared by adding […] each of compound dilutions of the compound plates into 384-well “assay plates”. In the following the compounds were mixed with 50 μL of assays components (cells or enzyme) and tested for their inhibitory activity.
(§3) Compounds of Formula (I) were tested for their antiproliferative effect on Ba/F3 cells expressing either Tel-TrkA, Tel-TrkB or Tel-TrkC and an additional panel of 34 selected diverse kinases activated by fusion to the dimerizing partners Bcr or Tel (Abl, A1K, BMX, EphA3, EphB2, FGFR2, FGFR3, FGFR4, FGR, FLT1, FLT3, FLT4, FMS, IGF1R, InsR, JAK1, JAK2, JAK3, KDR, Kit, Lck, Lyn, MER, MET, PDGFRb, RET, RON, Ros-1, Src, Aurora, TIE2, TYK2, Tie1, ZAP70). The antiproliferative effect of these compounds on the different cell lines and on the non transformed cells were tested at 12 different concentrations of 3-fold serially diluted compounds in 384 well plates as described above (in media lacking IL3). The IC50 values of the compounds the different cell lines were determined from dose response curves.
(§4) The cell line used is the luciferase expressing Ba/F3 murine hematopoietic progenitor cell line transformed with human Tel-TrkA, Tel-TrkB or Tel-TrkC cDNAs (Ba/F3 EN A/B/C). These cells maintained in RPMI/10% fetal bovine serum (RPMI/FCS) supplemented with penicillin 50 mg/mL, streptomycin 50 mg/mL and L-glutamine […]. Untransformed Ba/F3 cells were similarly maintained with the addition 5 ng/ml of murine recombinant IL3. 50 μl of a Ba/F3 or Ba/F3 EN A/B/C cell suspension were plated in Greiner 384 well microplates (white)) at a density of 2000 cells per well. […] The cells were incubated for 48 hours at 37° C., 5% CO2. 25 μl of Bright Glo® (Promega) luciferase substrate is added to each well. The emited luminiscence is quantified using the ACQUEST™ luminescence system (Molecular Devices). IC50 values were calculated by linear regression analysis of the percentage inhibition of each compound at 12 concentrations.

[2] = biological target: T2, Tel-TrkB (Homo sapiens, UniProt Q16620); test: Inhibition of proliferation of Ba/F3 cells expressing Tel-TrkB (BaF3/Tel-TrkB); assay type: cell-based; details: Ba/F3 Tel-TrkB cells; read-out: Ba/F3 Tel-TrkB IC 50
T2 construct: dimerization domain of Tel (ETV6) transcription factor (fusion partner, human ETV6 P41212); expressed in transfected cells; host or cells: luciferase expressing Ba/F3 murine hematopoietic progenitor cells; the other entry of the earlier key: ETV6 (P41212, Transcription factor ETV6)
Protocol: as §1, §2, §3, §4

[3] = biological target: T3, full length rTrkA and mNGF (Rattus norvegicus, UniProt P35739); test: Inhibition of proliferation of Ba/F3 cells co-expressing full length rTrkA and mNGF (BaF3/TrkA-NFG); assay type: cell-based; details: BaF3 TRKA-NGF cells, CTG readout
T3 construct: co-expressing full length rTrkA and mNGF; expressed in transfected cells; host or cells: Ba/F3 cells

[4] = test system: parental BaF3 cells; test: Proliferation of parental (untransformed) Ba/F3 cells maintained with IL3; assay type: cell-based, murine; details: Mus musculus, BaF3, parental Ba/F3 cells; read-out: Ba/F3 IC 50
Protocol: as §1, §2
The cell line used is the luciferase expressing Ba/F3 murine hematopoietic progenitor cell line transformed with human Tel-TrkA, Tel-TrkB or Tel-TrkC cDNAs (Ba/F3 EN A/B/C). These cells maintained in RPMI/10% fetal bovine serum (RPMI/FCS) supplemented with penicillin 50 mg/mL, streptomycin 50 mg/mL and L-glutamine […]. Untransformed Ba/F3 cells were similarly maintained with the addition 5 ng/ml of murine recombinant IL3. 50 μl of a Ba/F3 or Ba/F3 EN A/B/C cell suspension were plated in Greiner 384 well microplates (white)) at a density of 2000 cells per well. 50 nl of serially diluted test compound (10-0.0001 mM in DMSO solution) is added to each well. The cells were incubated for 48 hours at 37° C., 5% CO2. 25 μl of Bright Glo® (Promega) luciferase substrate is added to each well. The emited luminiscence is quantified using the ACQUEST™ luminescence system (Molecular Devices). IC50 values were calculated by linear regression analysis of the percentage inhibition of each compound at 12 concentrations.

T2 sequence (Q16620 538-822 limits assumed): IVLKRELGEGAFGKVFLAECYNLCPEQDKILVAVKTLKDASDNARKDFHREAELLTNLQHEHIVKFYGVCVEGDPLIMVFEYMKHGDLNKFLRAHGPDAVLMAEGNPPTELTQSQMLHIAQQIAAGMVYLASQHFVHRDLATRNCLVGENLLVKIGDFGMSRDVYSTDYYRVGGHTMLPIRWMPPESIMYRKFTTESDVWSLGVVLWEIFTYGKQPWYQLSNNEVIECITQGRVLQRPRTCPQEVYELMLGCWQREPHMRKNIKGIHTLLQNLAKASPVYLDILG
T3 sequence (P35739 33-799): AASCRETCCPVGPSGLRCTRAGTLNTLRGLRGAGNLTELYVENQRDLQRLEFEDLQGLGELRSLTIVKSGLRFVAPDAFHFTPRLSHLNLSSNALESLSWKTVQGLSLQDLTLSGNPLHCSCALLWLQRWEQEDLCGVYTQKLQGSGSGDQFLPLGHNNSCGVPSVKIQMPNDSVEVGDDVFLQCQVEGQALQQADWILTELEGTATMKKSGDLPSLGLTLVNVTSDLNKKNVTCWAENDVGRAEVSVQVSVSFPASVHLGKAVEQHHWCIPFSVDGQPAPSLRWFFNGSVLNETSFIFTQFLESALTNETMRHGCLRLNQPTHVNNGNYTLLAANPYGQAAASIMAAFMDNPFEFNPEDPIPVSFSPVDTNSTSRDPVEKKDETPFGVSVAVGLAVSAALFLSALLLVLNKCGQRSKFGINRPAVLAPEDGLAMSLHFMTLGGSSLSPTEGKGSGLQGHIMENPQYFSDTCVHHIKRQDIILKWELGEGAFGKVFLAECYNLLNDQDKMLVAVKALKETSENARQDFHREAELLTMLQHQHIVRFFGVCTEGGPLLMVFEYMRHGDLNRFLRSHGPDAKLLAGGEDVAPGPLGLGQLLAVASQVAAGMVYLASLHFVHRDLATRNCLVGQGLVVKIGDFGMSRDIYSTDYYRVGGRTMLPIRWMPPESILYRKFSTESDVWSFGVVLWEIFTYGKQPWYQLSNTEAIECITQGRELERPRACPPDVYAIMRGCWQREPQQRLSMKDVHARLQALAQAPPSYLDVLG
T3 sequence (P01139 122-241 partner): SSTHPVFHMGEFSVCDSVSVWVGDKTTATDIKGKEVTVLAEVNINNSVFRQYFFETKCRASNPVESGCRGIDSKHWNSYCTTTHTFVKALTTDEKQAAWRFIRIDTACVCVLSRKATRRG
T1 sequence (P04629 510-796 limits assumed): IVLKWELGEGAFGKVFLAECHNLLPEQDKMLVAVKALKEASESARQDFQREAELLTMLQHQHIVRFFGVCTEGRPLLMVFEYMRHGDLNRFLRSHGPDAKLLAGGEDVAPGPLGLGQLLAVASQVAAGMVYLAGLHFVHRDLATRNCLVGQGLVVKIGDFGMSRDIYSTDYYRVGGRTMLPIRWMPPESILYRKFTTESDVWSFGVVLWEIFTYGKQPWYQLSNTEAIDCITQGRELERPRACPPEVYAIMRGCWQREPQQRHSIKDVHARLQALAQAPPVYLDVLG

Row | Compound | IC50 [1] | IC50 [2] | BaF3 TRKA-NGF CTG IC 50 [3] | IC50 [4]
1 | CC(C)(C)OC(=O)N1CCC(Oc2ncc(-c3cnc4ccc(N5CCCC5c5cccc(F)c5)nn34)cn2)CC1 (centres unmarked) [Table 7-Compound 176] | 1120 nM | 971 nM | 886 nM | 2750 nM
2 | Fc1cccc(C2COCCN2c2ccc3ncc(-c4ccc(CN5CCOCC5)cn4)n3n2)c1 (centres unmarked) [Table 2-Compound 20] | 390 nM | 390 nM | 280 nM | > 10000 nM
3 | O=C(NCCO)c1ccc(-c2cnc3ccc(N4CCCC4c4cccc(F)c4)nn23)cn1 (centres unmarked) [Table 3-Compound 19] | 1020 nM | 540 nM | 370 nM | > 10000 nM
4 | O=C(Nc1cnc(-c2cnc3ccc(N4CCCC4c4cccc(F)c4)nn23)cn1)C1CC1 (centres unmarked) [Table 3-Compound 41] | 200 nM | 210 nM | 110 nM | 200 nM
5 | Fc1cccc(C2CCCN2c2ccc3ncc(-c4cc5ccccc5nc4F)n3n2)c1 (centres unmarked) [Table 7-Compound 153] | 346 nM | 244 nM | 698 nM | > 11000 nM
6 | CC1CN(Cc2cccc(-c3cnc4ccc(N5CCCC5c5cccc(F)c5)nn34)n2)CC(C)O1 (centres unmarked) [Table 3-Compound 44] | 1120 nM | 1140 nM | 1200 nM | > 10000 nM
7 | OC1CCN(Cc2cccc(-c3cnc4ccc(N5CCCC5c5cccc(F)c5)nn34)n2)C1 (centres unmarked) [Table 3-Compound 45] | 1020 nM | 790 nM | 1020 nM | 8060 nM
8 | O=C(c1ccc(-c2cnc3ccc(N4CCCC4c4cccc(F)c4)nn23)cn1)N1CCC(O)CC1 (centres unmarked) [Table 3-Compound 26] | 1020 nM | 540 nM | 370 nM | > 10000 nM
9 | CC(C)c1noc(C2CCN(c3cccc(-c4cnc5ccc(N6CCOCC6c6cccc(F)c6)nn45)n3)CC2)n1 (centres unmarked) [Table 7-Compound 21] | 90 nM | 67 nM | 121 nM | > 10000 nM
10 | OCCNc1ncc(-c2cnc3ccc(N4CCCC4c4cccc(F)c4)nn23)cn1 (centres unmarked) [Table 7-Compound 171] | 224 nM | 129 nM | 238 nM | > 11000 nM
11 | Fc1cccc(C2CCCN2c2ccc3ncc(-c4csc(CN5CCNCC5)n4)n3n2)c1 (centres unmarked) [Table 3-Compound 30] | 1100 nM | 1060 nM | 1340 nM | > 10000 nM
12 | Fc1ccc(F)c(C2CCCN2c2ccc3ncn(-c4cccc(-c5ncc[nH]5)c4)c3n2)c1 (centres unmarked) [Table 1-Compound 4] | 1600 nM | 790 nM |  | 

Now those with a lower IC50 [1], led by results:

Row | IC50 [1] | IC50 [2] | BaF3 TRKA-NGF CTG IC 50 [3] | Compound | IC50 [4]
13 | 10 nM | 24 nM | 12 nM | OCCC1CCN(c2cccc(-c3cnc4ccc(N5CCOCC5c5cccc(F)c5)nn34)n2)CC1 (centres unmarked) [Table 2-Compound 23] | > 10000 nM
14 | 28 nM | 37 nM | 41 nM | Fc1cccc(C2CCCN2c2ccc3ncc(-c4cccc(-c5cnc(N6CCOCC6)nc5)n4)n3n2)c1 (centres unmarked) [Table 7-Compound 54] | > 10000 nM
15 | 7.7 nM | 7.5 nM | 12 nM | O=C(C1CCN(c2cccc(-c3cnc4ccc(N5CCOCC5c5cccc(F)c5)nn34)n2)CC1)N1CCC(O)C1 (centres unmarked) [Table 7-Compound 26] | > 10000 nM
16 | 14 nM | 14 nM | 16 nM | CN(C)CCNC(=O)C1CCN(c2cccc(-c3cnc4ccc(N5CCCC5c5cccc(F)c5)nn34)n2)CC1 (centres unmarked) [Table 7-Compound 115] | 4840 nM
17 | 8.9 nM | 10 nM | 5.12 nM | OCCN1CCN(c2nccc(-c3cccc(-c4cnc5ccc(N6CCC[C@@H]6c6cccc(F)c6)nn45)n3)n2)CC1 [Table 7-Compound 82] | 397 nM
18 | 1.8 nM | 1.6 nM | 3.6 nM | Fc1cccc(C2CCCN2c2ccc3ncc(-c4cccc(-c5cnco5)n4)n3n2)c1 (centres unmarked) [Table 7-Compound 20] | > 10000 nM
19 | 13 nM | 24 nM | 39 nM | Fc1cccc(C2CCCN2c2ccc3ncc(-c4cccc(-c5ccnc(N6CC7(COC7)C6)n5)n4)n3n2)c1 (centres unmarked) [Table 7-Compound 136] | 4320 nM
20 | 64 nM | 70 nM | 119 nM | CNC(=O)OC1CCN(c2cccc(-c3cnc4ccc(N5CCC[C@@H]5c5cccc(F)c5)nn34)n2)CC1 [Table 7-Compound 185] | > 11000 nM
21 | 1 nM | 2 nM | 3 nM | CC(C)NC(=O)CN1CCN(c2cccc(-c3cnc4ccc(N5CCCC5c5cccc(F)c5)nn34)n2)CC1 (centres unmarked) [Table 7-Compound 96] | 5990 nM
22 | 10 nM | 7.1 nM | 28 nM | Fc1cccc(C2CCCN2c2ccc3ncc(-c4cccc(OCCN5CCOCC5)n4)n3n2)c1 (centres unmarked) [Table 4-Compound 25] | 7500 nM
23 | 23 nM | 39 nM | 62 nM | NC(=O)C1CCCN(c2cccc(-c3cnc4ccc(N5CCOCC5c5cccc(F)c5)nn34)n2)C1 (centres unmarked) [Table 7-Compound 6] | > 10000 nM
24 | 7 nM | 8 nM | 14 nM | O=C1CCN(c2cccc(-c3cnc4ccc(N5CCC[C@@H]5c5cccc(F)c5)nn34)n2)CC1 [Table 7-Compound 181] | > 11000 nM
25 | 17 nM | 25 nM | 35 nM | C=CC1(O)CCN(c2cccc(-c3cnc4ccc(N5CCC[C@@H]5c5cccc(F)c5)nn34)n2)CC1 [Table 7-Compound 238] | > 11000 nM
26 | 2 nM | 2 nM | 4 nM | O=C(CO)NC1CN(c2cccc(-c3cnc4ccc(N5CCC[C@@H]5c5cccc(F)c5)nn34)n2)C1 [Table 7-Compound 132] | > 11000 nM
27 | 8.2 nM | 8.8 nM | 6.1 nM | CN1CCC(N2CCN(c3cccc(-c4cnc5ccc(N6CCOCC6c6cccc(F)c6)nn45)n3)CC2)CC1 (centres unmarked) [Table 7-Compound 8] | 1570 nM
28 | 27 nM | 30 nM | 60 nM | Fc1cccc([C@H]2CCCN2c2ccc3ncc(-c4cccc(N5CC[C@@H](NCC(F)(F)F)C5)n4)n3n2)c1 [Table 7-Compound 217] | > 11000 nM
